In article PMC8429728, “TNK1 is a ubiquitin-binding and 14-3-3-regulated kinase that can be targeted to block tumor growth” (Nature Communications, 2021):
Like-named read-outs stand apart in the source and are kept apart here.

How the values were obtained:
Assay in all cases: biochemical
Parameters in all cases: Reaction Biology 371-kinase panel at Km ATP, per cent enzyme activity relative to DMSO, single dose in duplicate
Conditions in all cases: duplicate measurements, Km ATP
BLK = BLK (Homo sapiens, UniProt P51451)
Outline: (§1)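 Activity of each kinase, normalised to DMSO-treated controls, served as the read-out. The inhibitor was tested at 300 nM against 371 kinases in vitro. Curves fitted by variable-slope sigmoidal dose-response, constrained to a bottom of 0, gave IC50.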

BMPR2 = BMPR2 (Homo sapiens, UniProt Q13873)
Outline: as §1

BRSK2 = BRSK2 (Homo sapiens, UniProt Q8IWQ3)
Outline: as §1

EPHB2 = EPHB2 (Homo sapiens, UniProt P29323)
Outline: as §1

FLT4/VEGFR3 = FLT4/VEGFR3 (Homo sapiens, UniProt P35916)
Outline: as §1

HIPK3 = HIPK3 (Homo sapiens, UniProt Q9H422)
Outline: as §1

IGF1R = IGF1R (Homo sapiens, UniProt P08069)
Outline: as §1

JAK3 = JAK3 (Homo sapiens, UniProt P52333)
Outline: as §1

MAPKAPK5/PRAK = MAPKAPK5/PRAK (Homo sapiens, UniProt Q8IW41)
Outline: as §1

MARK4 = MARK4 (Homo sapiens, UniProt Q96L34)
Outline: as §1

MAST3 = MAST3 (Homo sapiens, UniProt O60307)
Outline: as §1

MEKK1 = molecular target: T1, MEKK1 (Homo sapiens, UniProt Q13233)
T1 construct: gene MAP3K1
Outline: as §1

MINK/MINK1 = MINK/MINK1 (Homo sapiens, UniProt Q8N4C8)
Outline: as §1

MKK4 = molecular target: T2, MKK4 (Homo sapiens, UniProt P45985)
T2 construct: gene MAP2K4
Outline: as §1

MYLK4 = MYLK4 (Homo sapiens, UniProt Q86YV6)
Outline: as §1

NEK2 = NEK2 (Homo sapiens, UniProt P51955)
Outline: as §1

PDGFRa = PDGFRa (Homo sapiens, UniProt P16234)
Outline: as §1

PKN3/PRK3 = PKN3/PRK3 (Homo sapiens, UniProt Q6P5Z2)
Outline: as §1

RET = RET (Homo sapiens, UniProt P07949)
Outline: as §1

STK33 = STK33 (Homo sapiens, UniProt Q9BYT3)
Outline: as §1

[1] = read-out: % Enzyme Activity (relative to DMSO controls) / TP-0005801 (0.3µM) / Data 1
[2] = read-out: % Enzyme Activity (relative to DMSO controls) / TP-0005801 (0.3µM) / Data 2

Chain of PDGFRa (P16234 whole entry): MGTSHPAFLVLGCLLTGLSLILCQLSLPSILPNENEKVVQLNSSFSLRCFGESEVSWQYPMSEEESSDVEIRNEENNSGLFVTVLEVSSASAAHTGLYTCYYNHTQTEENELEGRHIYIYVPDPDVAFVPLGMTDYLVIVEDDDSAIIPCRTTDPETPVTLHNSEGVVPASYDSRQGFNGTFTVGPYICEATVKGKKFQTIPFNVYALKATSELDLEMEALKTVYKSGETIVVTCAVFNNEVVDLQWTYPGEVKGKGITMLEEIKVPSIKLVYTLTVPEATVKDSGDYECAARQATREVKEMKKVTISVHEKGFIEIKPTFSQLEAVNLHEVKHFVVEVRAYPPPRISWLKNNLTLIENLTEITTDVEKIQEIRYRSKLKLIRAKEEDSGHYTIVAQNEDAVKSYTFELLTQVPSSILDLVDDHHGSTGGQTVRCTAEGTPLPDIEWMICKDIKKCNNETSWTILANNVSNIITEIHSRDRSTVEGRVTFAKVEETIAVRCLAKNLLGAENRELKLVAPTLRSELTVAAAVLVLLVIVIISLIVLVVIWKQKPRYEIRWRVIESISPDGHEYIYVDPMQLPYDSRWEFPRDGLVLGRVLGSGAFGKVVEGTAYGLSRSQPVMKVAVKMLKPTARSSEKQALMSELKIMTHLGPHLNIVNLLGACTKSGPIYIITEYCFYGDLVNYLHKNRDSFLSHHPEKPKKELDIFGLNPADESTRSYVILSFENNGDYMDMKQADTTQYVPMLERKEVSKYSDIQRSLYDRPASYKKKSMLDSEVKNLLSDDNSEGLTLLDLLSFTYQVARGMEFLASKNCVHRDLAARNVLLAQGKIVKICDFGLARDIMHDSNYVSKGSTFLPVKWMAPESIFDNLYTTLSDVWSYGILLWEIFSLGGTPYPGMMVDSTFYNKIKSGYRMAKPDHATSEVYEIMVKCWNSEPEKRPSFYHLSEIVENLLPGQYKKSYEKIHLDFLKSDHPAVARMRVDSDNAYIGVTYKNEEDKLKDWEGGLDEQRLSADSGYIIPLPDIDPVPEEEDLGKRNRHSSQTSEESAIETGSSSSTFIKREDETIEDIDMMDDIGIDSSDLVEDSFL
Chain of BRSK2 (Q8IWQ3 whole entry): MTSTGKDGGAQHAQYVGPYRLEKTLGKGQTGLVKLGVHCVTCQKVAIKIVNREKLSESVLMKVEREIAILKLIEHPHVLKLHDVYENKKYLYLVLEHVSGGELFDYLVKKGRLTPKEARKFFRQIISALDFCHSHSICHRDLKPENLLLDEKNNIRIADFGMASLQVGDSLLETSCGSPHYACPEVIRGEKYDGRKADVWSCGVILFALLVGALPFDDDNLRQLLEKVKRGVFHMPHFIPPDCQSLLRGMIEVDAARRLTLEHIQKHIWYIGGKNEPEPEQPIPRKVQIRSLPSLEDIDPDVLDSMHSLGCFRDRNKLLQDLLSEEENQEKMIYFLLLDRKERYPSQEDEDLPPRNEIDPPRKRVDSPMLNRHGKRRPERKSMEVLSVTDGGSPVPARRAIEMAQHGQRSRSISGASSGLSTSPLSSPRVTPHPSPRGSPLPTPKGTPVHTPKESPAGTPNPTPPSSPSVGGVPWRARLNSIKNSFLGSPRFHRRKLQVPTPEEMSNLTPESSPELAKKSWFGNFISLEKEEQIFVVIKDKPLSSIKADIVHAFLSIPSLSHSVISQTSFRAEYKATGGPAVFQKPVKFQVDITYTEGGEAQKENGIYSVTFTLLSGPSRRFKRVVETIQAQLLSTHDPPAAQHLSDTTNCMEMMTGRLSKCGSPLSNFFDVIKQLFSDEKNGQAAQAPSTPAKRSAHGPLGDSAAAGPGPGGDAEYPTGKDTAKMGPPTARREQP
Chain of JAK3 (P52333 whole entry): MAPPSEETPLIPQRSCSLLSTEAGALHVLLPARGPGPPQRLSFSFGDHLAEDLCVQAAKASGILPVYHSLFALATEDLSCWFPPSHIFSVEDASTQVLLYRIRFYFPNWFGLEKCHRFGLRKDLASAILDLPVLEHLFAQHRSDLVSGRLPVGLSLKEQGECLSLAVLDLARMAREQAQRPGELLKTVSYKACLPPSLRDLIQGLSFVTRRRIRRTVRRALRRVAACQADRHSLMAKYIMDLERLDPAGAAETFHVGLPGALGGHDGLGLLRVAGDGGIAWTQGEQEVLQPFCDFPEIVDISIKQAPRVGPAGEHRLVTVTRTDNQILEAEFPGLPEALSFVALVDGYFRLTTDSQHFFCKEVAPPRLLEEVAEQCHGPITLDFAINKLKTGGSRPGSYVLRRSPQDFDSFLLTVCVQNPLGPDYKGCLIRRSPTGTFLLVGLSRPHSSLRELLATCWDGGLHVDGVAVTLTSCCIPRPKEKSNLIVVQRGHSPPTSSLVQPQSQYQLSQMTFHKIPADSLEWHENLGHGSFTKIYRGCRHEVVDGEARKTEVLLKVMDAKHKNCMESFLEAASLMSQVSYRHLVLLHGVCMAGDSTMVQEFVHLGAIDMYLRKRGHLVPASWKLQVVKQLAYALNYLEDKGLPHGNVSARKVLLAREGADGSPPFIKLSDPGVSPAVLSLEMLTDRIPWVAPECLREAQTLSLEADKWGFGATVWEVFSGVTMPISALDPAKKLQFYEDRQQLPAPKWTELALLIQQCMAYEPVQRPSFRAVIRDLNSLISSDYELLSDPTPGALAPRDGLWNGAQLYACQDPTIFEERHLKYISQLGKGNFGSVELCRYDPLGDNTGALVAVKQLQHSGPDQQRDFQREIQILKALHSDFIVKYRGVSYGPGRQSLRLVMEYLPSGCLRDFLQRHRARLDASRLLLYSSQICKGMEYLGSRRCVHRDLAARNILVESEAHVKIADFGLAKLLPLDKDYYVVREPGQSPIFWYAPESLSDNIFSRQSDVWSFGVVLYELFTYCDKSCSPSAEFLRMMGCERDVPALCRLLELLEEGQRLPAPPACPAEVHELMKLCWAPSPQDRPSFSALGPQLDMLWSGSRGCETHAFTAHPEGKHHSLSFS
Chain of MAST3 (O60307 whole entry): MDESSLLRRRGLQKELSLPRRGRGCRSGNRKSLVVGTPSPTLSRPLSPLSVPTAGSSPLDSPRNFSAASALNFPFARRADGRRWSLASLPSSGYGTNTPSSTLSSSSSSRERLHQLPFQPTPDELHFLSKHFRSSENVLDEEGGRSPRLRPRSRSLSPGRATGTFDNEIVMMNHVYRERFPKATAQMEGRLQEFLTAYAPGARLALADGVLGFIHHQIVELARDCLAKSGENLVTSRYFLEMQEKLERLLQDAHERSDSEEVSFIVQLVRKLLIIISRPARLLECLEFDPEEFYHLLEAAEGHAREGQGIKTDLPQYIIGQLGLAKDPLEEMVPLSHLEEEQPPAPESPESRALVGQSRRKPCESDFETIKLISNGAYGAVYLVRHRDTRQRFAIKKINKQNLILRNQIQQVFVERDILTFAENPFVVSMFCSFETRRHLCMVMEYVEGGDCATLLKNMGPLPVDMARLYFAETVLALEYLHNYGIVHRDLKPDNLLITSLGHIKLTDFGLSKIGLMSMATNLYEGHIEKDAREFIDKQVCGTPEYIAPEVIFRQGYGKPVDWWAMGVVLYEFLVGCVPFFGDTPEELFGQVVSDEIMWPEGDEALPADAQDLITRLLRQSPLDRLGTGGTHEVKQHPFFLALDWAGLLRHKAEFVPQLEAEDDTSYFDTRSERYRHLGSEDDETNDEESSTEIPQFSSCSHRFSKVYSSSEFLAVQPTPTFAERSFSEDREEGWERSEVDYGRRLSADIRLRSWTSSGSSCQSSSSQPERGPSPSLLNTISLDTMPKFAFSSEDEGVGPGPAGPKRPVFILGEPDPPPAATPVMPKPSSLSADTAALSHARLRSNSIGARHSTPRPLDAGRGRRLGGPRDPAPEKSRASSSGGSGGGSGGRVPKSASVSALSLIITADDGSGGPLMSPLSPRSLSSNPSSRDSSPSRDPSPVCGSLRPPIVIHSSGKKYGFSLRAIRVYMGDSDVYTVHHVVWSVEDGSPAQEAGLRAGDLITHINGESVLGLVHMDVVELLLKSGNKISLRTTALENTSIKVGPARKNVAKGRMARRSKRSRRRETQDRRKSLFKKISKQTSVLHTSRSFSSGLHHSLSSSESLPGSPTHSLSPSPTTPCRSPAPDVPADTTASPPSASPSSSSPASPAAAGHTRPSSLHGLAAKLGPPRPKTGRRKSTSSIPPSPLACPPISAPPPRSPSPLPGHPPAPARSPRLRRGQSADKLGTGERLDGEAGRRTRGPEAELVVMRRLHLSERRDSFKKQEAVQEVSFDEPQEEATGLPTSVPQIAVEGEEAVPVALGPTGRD
Chain of MAPKAPK5/PRAK (Q8IW41 whole entry): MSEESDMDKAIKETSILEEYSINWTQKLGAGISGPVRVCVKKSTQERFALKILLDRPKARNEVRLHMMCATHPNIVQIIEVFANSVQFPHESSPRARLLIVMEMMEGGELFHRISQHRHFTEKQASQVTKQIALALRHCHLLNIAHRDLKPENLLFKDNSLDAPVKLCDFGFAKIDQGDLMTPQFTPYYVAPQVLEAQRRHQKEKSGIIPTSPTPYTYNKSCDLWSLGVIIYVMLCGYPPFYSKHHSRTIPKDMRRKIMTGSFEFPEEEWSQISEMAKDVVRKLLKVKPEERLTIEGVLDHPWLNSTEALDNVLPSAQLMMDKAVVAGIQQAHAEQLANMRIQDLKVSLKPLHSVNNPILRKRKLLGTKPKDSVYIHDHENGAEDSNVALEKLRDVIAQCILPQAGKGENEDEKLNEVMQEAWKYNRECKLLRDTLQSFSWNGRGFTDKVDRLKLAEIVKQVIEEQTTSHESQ

## COc1cc(N2CCN(C)CC2)c(C)cc1Nc1ncc(Br)c(Nc2cccnc2N(C)C)n1 [TP-5801]
BLK; [1]
  remaining activity at 0.3 µM: 88.3%
BLK; [2]
  remaining activity at 0.3 µM: 87.5%
BMPR2; [1]
  remaining activity at 0.3 µM: 89.7%
BMPR2; [2]
  remaining activity at 0.3 µM: 89.2%
BRSK2; [1]
  remaining activity at 0.3 µM: 119%
BRSK2; [2]
  remaining activity at 0.3 µM: 116%
EPHB2; [1]
  remaining activity at 0.3 µM: 86.4%
EPHB2; [2]
  remaining activity at 0.3 µM: 85.6%
FLT4/VEGFR3; [1]
  remaining activity at 0.3 µM: 35.2%
FLT4/VEGFR3; [2]
  remaining activity at 0.3 µM: 35.1%
HIPK3; [1]
  remaining activity at 0.3 µM: 91.9%
HIPK3; [2]
  remaining activity at 0.3 µM: 85.6%
IGF1R; [1]
  remaining activity at 0.3 µM: 16.7%
IGF1R; [2]
  remaining activity at 0.3 µM: 16.2%
JAK3; [1]
  remaining activity at 0.3 µM: 29.3%
JAK3; [2]
  remaining activity at 0.3 µM: 28.7%
MAPKAPK5/PRAK; [1]
  remaining activity at 0.3 µM: 116%
MAPKAPK5/PRAK; [2]
  remaining activity at 0.3 µM: 107%
MARK4; [1]
  remaining activity at 0.3 µM: 89.8%
MARK4; [2]
  remaining activity at 0.3 µM: 88.4%
MAST3; [1]
  remaining activity at 0.3 µM: 101%
MAST3; [2]
  remaining activity at 0.3 µM: 100%
MEKK1; [1]
  remaining activity at 0.3 µM: 111%
MEKK1; [2]
  remaining activity at 0.3 µM: 109%
MINK/MINK1; [1]
  remaining activity at 0.3 µM: 95.6%
MINK/MINK1; [2]
  remaining activity at 0.3 µM: 89.2%
MKK4; [1]
  remaining activity at 0.3 µM: 78.8%
MKK4; [2]
  remaining activity at 0.3 µM: 76%
MYLK4; [1]
  remaining activity at 0.3 µM: 108%
MYLK4; [2]
  remaining activity at 0.3 µM: 96.9%
NEK2; [1]
  remaining activity at 0.3 µM: 60.3%
NEK2; [2]
  remaining activity at 0.3 µM: 55.8%
PDGFRa; [1]
  remaining activity at 0.3 µM: 84.6%
PDGFRa; [2]
  remaining activity at 0.3 µM: 84.5%
PKN3/PRK3; [1]
  remaining activity at 0.3 µM: 95.4%
PKN3/PRK3; [2]
  remaining activity at 0.3 µM: 93.7%
RET; [1]
  remaining activity at 0.3 µM: 83.2%
RET; [2]
  remaining activity at 0.3 µM: 81.2%
STK33; [1]
  remaining activity at 0.3 µM: 32.4%
STK33; [2]
  remaining activity at 0.3 µM: 31.5%
